Patent US8598193B2, “Polycyclic agents for the treatment of respiratory syncytial virus infections” (Biota Scientific Management Pty Ltd., priority 2003, dated 2013)
Values after ≈ are worked out from the molar mass of the structure shown.

Each compound was assayed on RSV A2 (assay: RSV antiviral cytopathic effect (CPE) assay, MTT readout). Details: human respiratory syncytial virus, HEp-2, 120 h; RSV A2 in HEp2 cells, CPE assay, MTT, approx. 5 days; read-out: Activity Range (RSV A2 antiviral EC50), compounds of Table 2.
Assay type: cell-based
Procedure: Method Q: RSV Antiviral Assay Protocol
Compounds of the invention were tested for their antiviral activity against respiratory syncytial virus. Cytopathic effect (CPE) assays were performed essentially as described in the literature (see for example Watanabe et al, 1. Virological Methods, 1994, 48, 257). Serial dilutions of the test compounds were made in assay medium. HEp2 cells (1.0×10^4 cells/well) were infected with RSV at a low multiplicity of infection (e.g. RSV A2 at an moi of 0.01) and 100 μL added to cultures assessing antiviral activity and cells without virus added to those assessing compound cytotoxicity. Assays were incubated for approximately 5 days at 37° C. in a 5% CO2 atmosphere. The extent of CPE was determined via metabolism of the vital dye 3-(4,5-dimethylthiaxol-2-yl)-2,5-diphenyltetrazolium bromide (MTT). A 3 mg/ml stock of MTT was made in assay medium and 100 μL added to each well, taking the final MTT concentration to […]. After 2 hours incubation at 37° C., the media-MTT solution was removed and 200 μL of isopropanol was added to dissolve the vital dye crystals. Plates were shaken and the absorbance read at 540 nm. The compound concentrations that inhibited CPE by 50% (EC50) and developed cytotoxicity (CC50) were calculated using an Excel curve fitting program.

Structure (SMILES)	EC50 [µg/mL]
CCC(=O)N1CCN2C(=O)c3ccccc3C12c1ccc(C(F)(F)F)cc1 (stereo not drawn) [Compound 305]	0.25 to 1 (≈ 0.668 to 2.67 µM)
O=C(c1csc(-c2cccs2)n1)N1CCN2C(=O)c3ccccc3C12c1ccc(Cl)cc1 (stereo not drawn) [Compound 324]	0.1 to 0.25 (≈ 0.209 to 0.523 µM)
CCOc1ccsc1C(=O)N1CCN2C(=O)c3ccccc3C21c1ccc(Cl)cc1 (stereo not drawn) [Compound 329]	0.1 to 0.25 (≈ 0.228 to 0.57 µM)
COc1ccc(NC(=O)N2CCN3C(=O)c4ccccc4C23c2ccc(Cl)cc2)cc1 (stereo not drawn) [Compound 85]	0.1 to 0.25 (≈ 0.23 to 0.576 µM)
CC(C)c1ccc(C23c4ccccc4C(=O)N2CCN3C(=O)c2ccc(F)cc2)cc1 (stereo not drawn) [Compound 203]	0.25 to 1 (≈ 0.603 to 2.41 µM)
O=C(Oc1ccc(C23c4ccccc4C(=O)N2CCN3C(=O)c2ccc(F)cc2)cc1)c1ccc(F)cc1 (stereo not drawn) [Compound 237]	0.25 to 1 (≈ 0.49 to 1.96 µM)
O=C(Cc1cccc(Br)c1)N1CCN2C(=O)c3ccccc3C12c1ccc(Cl)cc1 (stereo not drawn) [Compound 242]	0.1 to 0.25 (≈ 0.208 to 0.519 µM)
O=C(c1ccc(F)cc1)N1CCN2C(=O)c3ccccc3C12c1ccc(OCC2CC2)cc1 (stereo not drawn) [Compound 267]	< 0.1
COc1ccc(CC(=O)N2CCN3C(=O)c4ccccc4C23c2ccc(C(F)(F)F)cc2)cc1 (stereo not drawn) [Compound 304]	0.25 to 1 (≈ 0.536 to 2.14 µM)
O=C(NCc1ccc(F)cc1)N1CCN2C(=O)c3ccccc3C12c1ccc(Cl)cc1 (stereo not drawn) [Compound 87]	0.1 to 0.25 (≈ 0.229 to 0.574 µM)
O=C(c1cscn1)N1CCN2C(=O)c3ccccc3C12c1ccc(Cl)cc1 (stereo not drawn) [Compound 334]	0.1 to 0.25 (≈ 0.253 to 0.632 µM)
CCC(=O)N1CCN2C(=O)c3ccccc3C12c1ccc(Br)cc1 (stereo not drawn) [Compound 236]	0.1 to 0.25 (≈ 0.26 to 0.649 µM)
CC(C)CC(=O)N1CCN2C(=O)c3ccccc3C12c1ccc(Cl)cc1 (stereo not drawn) [Compound 214]	0.25 to 1 (≈ 0.678 to 2.71 µM)
Cc1nc(C(=O)N2CCN3C(=O)c4ccccc4C23c2ccc(Cl)cc2)cs1 (stereo not drawn) [Compound 188]	0.25 to 1 (≈ 0.61 to 2.44 µM)
Cc1noc(C)c1COc1ccc(C23c4ccccc4C(=O)N2CCN3C(=O)c2ccc(F)cc2)cc1 (stereo not drawn) [Compound 263]	0.1 to 0.25 (≈ 0.201 to 0.502 µM)
O=C(c1ccsc1)N1CCN2C(=O)c3ccccc3C12c1ccc(Cl)cc1 (stereo not drawn) [Compound 327]	0.1 to 0.25 (≈ 0.253 to 0.633 µM)
O=C(CCCc1c[nH]c2ccccc12)N1CCN2C(=O)c3ccccc3C12c1ccc(Cl)cc1 (stereo not drawn) [Compound 228]	0.25 to 1 (≈ 0.532 to 2.13 µM)

Structure (SMILES)	EC50 [µg/mL]
NC(=O)COc1ccc(C23c4ccccc4C(=O)N2CCN3C(=O)c2ccc(F)cc2)cc1 (stereo not drawn) [Compound 266]	0.25 to 1 (≈ 0.561 to 2.24 µM)
Cc1ccc(C23c4ccccc4C(=O)N2CCN3C(=O)NCc2ccccc2)cc1 (stereo not drawn) [Compound 82]	0.25 to 1 (≈ 0.629 to 2.52 µM)
O=C1c2ccccc2C2(c3ccc(Cl)cc3)N1CCN2C(=O)c1sccc1Cl (stereo not drawn) [Compound 328]	0.1 to 0.25 (≈ 0.233 to 0.582 µM)
N#CCOc1ccc(C23c4ccccc4C(=O)N2CCN3C(=O)c2ccc(F)cc2)cc1 (stereo not drawn) [Compound 239]	0.1 to 0.25 (≈ 0.234 to 0.585 µM)
NCCNc1ccc(C(=O)N2CCN3C(=O)c4ccccc4C23c2ccc(Cl)cc2)cn1 (stereo not drawn) [Compound 320]	0.25 to 1 (≈ 0.558 to 2.23 µM)
O=C(CSCc1ccccc1)N1CCN2C(=O)c3ccccc3C12c1ccc(Cl)cc1 (stereo not drawn) [Compound 217]	0.1 to 0.25 (≈ 0.223 to 0.557 µM)
O=C(c1cccc(Cl)n1)N1CCN2C(=O)c3ccccc3C12c1ccc(Cl)cc1 (stereo not drawn) [Compound 330]	0.1 to 0.25 (≈ 0.236 to 0.589 µM)
N#CCCCOc1ccc(C23c4ccccc4C(=O)N2CCN3C(=O)c2ccc(F)cc2)cc1 (stereo not drawn) [Compound 260]	0.1 to 0.25 (≈ 0.22 to 0.549 µM)
O=C1c2ccccc2C2(c3ccc(Cl)cc3)N1CCN2C(=O)c1cccc2c1OCCO2 (stereo not drawn) [Compound 245]	0.25 to 1 (≈ 0.559 to 2.24 µM)
CC(=O)COc1ccc(C23c4ccccc4C(=O)N2CCN3C(=O)c2ccc(F)cc2)cc1 (stereo not drawn) [Compound 268]	0.25 to 1 (≈ 0.562 to 2.25 µM)
O=C(CC1CCCC1)N1CCN2C(=O)c3ccccc3C12c1ccc(Cl)cc1 (stereo not drawn) [Compound 216]	0.25 to 1 (≈ 0.633 to 2.53 µM)
O=C(c1ccoc1)N1CCN2C(=O)c3ccccc3C12c1ccc(Cl)cc1 (stereo not drawn) [Compound 326]	0.1 to 0.25 (≈ 0.264 to 0.66 µM)
COc1ccc(CC(=O)N2CCN3C(=O)c4ccccc4C23c2ccc(F)cc2)cc1 (stereo not drawn) [Compound 232]	0.25 to 1 (≈ 0.6 to 2.4 µM)
CCC(=O)N1CCN2C(=O)c3ccccc3C12c1ccc(C)cc1 (stereo not drawn) [Compound 117]	0.25 to 1 (≈ 0.78 to 3.12 µM)
Nc1ccc(C(=O)N2CCN3C(=O)c4ccccc4C23c2ccc(Cl)cc2)cn1 (stereo not drawn) [Compound 319]	0.25 to 1 (≈ 0.618 to 2.47 µM)
O=C1c2ccccc2C2(c3ccc(Cl)cc3)N1CCN2C(=O)c1nsc(Cl)c1Cl (stereo not drawn) [Compound 331]	0.25 to 1 (≈ 0.538 to 2.15 µM)

Same assay, conditions: human respiratory syncytial virus, HEp-2, 120 h; RSV A2 in HEp2 cells, CPE assay, MTT, approx. 5 days; read-out: Activity Range (RSV A2 antiviral EC50), compounds of Table 3

Structure (SMILES)	EC50 [µg/mL]
O=C(c1ccoc1)N1CCN2C(=O)c3ccncc3C12c1ccc(Cl)cc1 (stereo not drawn) [Compound 414]	< 0.1
O=C(c1cncc(C#Cc2ccccc2)c1)N1CCN2C(=O)c3ccncc3C12c1ccc(Cl)cc1 (stereo not drawn) [Compound 406]	0.25 to 1 (≈ 0.509 to 2.04 µM)
O=C1c2ccncc2C2(c3ccc(Cl)cc3)N1CCN2C(=O)c1sccc1Cl (stereo not drawn) [Compound 442]	< 0.1
Cc1cc(C(=O)N2CCN3C(=O)c4ccncc4C23c2ccc(Cl)cc2)oc1C (stereo not drawn) [Compound 415]	0.25 to 1 (≈ 0.613 to 2.45 µM)
Cc1nn(-c2ccccc2)nc1C(=O)N1CCN2C(=O)c3ccncc3C21c1ccc(Cl)cc1 (stereo not drawn) [Compound 387]	0.1 to 0.25 (≈ 0.212 to 0.531 µM)
O=C1c2ccncc2C2(c3ccc(Cl)cc3)N1CCN2C(=O)c1csc2ccccc12 (stereo not drawn) [Compound 379]	0.1 to 0.25 (≈ 0.224 to 0.561 µM)
CCc1ccc(C23c4c[n+]([O-])ccc4C(=O)N2CCN3C(=O)c2ccc(F)cc2)cc1 (stereo not drawn) [Compound 372]	0.25 to 1 (≈ 0.599 to 2.4 µM)
O=C(c1csc(-c2ccc[n+]([O-])c2)n1)N1CCN2C(=O)c3cc[n+]([O-])cc3C12c1ccc(Cl)cc1 (stereo not drawn) [Compound 482]	< 0.1
COc1ccc(-c2ocnc2C(=O)N2CCN3C(=O)c4ccncc4C32c2ccc(Cl)cc2)cc1 (stereo not drawn) [Compound 462]	< 0.1
CCn1nc(C)cc1C(=O)N1CCN2C(=O)c3ccncc3C21c1ccc(Cl)cc1 (stereo not drawn) [Compound 422]	0.25 to 1 (≈ 0.593 to 2.37 µM)
O=C(c1cncc(-c2cccs2)c1)N1CCN2C(=O)c3ccncc3C12c1ccc(Cl)cc1 (stereo not drawn) [Compound 409]	0.1 to 0.25 (≈ 0.211 to 0.529 µM)
COc1c(C(=O)N2CCN3C(=O)c4ccncc4C32c2ccc(Cl)cc2)csc1Cl (stereo not drawn) [Compound 436]	0.1 to 0.25 (≈ 0.217 to 0.543 µM)
O=C(c1ccc(F)nc1)N1CCN2C(=O)c3cccnc3C12c1ccc(Cl)cc1 (stereo not drawn) [Compound 369]	0.1 to 0.25 (≈ 0.245 to 0.612 µM)
COc1ccc(CC(=O)N2CCN3C(=O)c4ccncc4C23c2ccc(Cl)cc2)cc1 (stereo not drawn) [Compound 351]	0.25 to 1 (≈ 0.576 to 2.3 µM)
O=C(c1csc([N+](=O)[O-])c1)N1CCN2C(=O)c3ccncc3C12c1ccc(Cl)cc1 (stereo not drawn) [Compound 434]	0.25 to 1 (≈ 0.567 to 2.27 µM)
CCc1ccc(C23c4cnccc4C(=O)N2CCN3C(=O)Cc2ccc(OC)cc2)cc1 (stereo not drawn) [Compound 371]	0.25 to 1 (≈ 0.585 to 2.34 µM)
O=C(c1ccc(F)nc1)N1CCN2C(=O)c3ncccc3C12c1ccc(Cl)cc1 (stereo not drawn) [Compound 370]	0.25 to 1 (≈ 0.612 to 2.45 µM)

Structure (SMILES)	EC50 [µg/mL]
Cc1nc(-c2ccccc2)sc1C(=O)N1CCN2C(=O)c3ccncc3C21c1ccc(Cl)cc1 (stereo not drawn) [Compound 468]	0.25 to 1 (≈ 0.513 to 2.05 µM)
O=C(c1ccc(C#Cc2ccccc2)o1)N1CCN2C(=O)c3ccncc3C12c1ccc(Cl)cc1 (stereo not drawn) [Compound 416]	0.25 to 1 (≈ 0.521 to 2.08 µM)
O=C(c1csc(-c2ccccc2)n1)N1CCN2C(=O)c3ccncc3C12c1ccc(Cl)cc1 (stereo not drawn) [Compound 391]	< 0.1
CSc1ncccc1C(=O)N1CCN2C(=O)c3ccncc3C21c1ccc(Cl)cc1 (stereo not drawn) [Compound 398]	0.1 to 0.25 (≈ 0.229 to 0.572 µM)
Cn1cc(C(=O)N2CCN3C(=O)c4ccncc4C32c2ccc(Cl)cc2)c(C(F)(F)F)n1 (stereo not drawn) [Compound 467]	< 0.1
CSc1ncc(Cl)c(C(=O)N2CCN3C(=O)c4ccncc4C32c2ccc(Cl)cc2)n1 (stereo not drawn) [Compound 454]	0.1 to 0.25 (≈ 0.212 to 0.529 µM)
O=C(c1ccccn1)N1CCN2C(=O)c3ccncc3C12c1ccc(Cl)cc1 (stereo not drawn) [Compound 455]	0.25 to 1 (≈ 0.64 to 2.56 µM)
O=C(c1ccc(F)cc1)N1CCN2C(=O)c3ccncc3C12c1ccc(Br)cc1 (stereo not drawn) [Compound 358]	0.1 to 0.25 (≈ 0.221 to 0.553 µM)
CC(C)c1sc(Cl)nc1C(=O)N1CCN2C(=O)c3ccncc3C21c1ccc(Cl)cc1 (stereo not drawn) [Compound 474]	0.1 to 0.25 (≈ 0.211 to 0.528 µM)
O=C(c1cccnc1)N1CCN2C(=O)c3ccncc3C12c1ccc(Cl)cc1 (stereo not drawn) [Compound 363]	< 0.1
Cc1nc(C(=O)N2CCN3C(=O)c4ccncc4C23c2ccc(Cl)cc2)cs1 (stereo not drawn) [Compound 444]	0.1 to 0.25 (≈ 0.243 to 0.608 µM)
O=C(c1cccs1)N1CCN2C(=O)c3ccncc3C12c1ccc(Cl)cc1 (stereo not drawn) [Compound 431]	< 0.1
O=C(c1ccc(F)nc1)N1CCN2C(=O)c3ccncc3C12c1ccc(Br)cc1 (stereo not drawn) [Compound 366]	< 0.1
Cc1noc(C)c1C(=O)N1CCN2C(=O)c3ccncc3C21c1ccc(Cl)cc1 (stereo not drawn) [Compound 392]	0.1 to 0.25 (≈ 0.245 to 0.611 µM)
CCCCCSc1ncccc1C(=O)N1CCN2C(=O)c3ccncc3C21c1ccc(Cl)cc1 (stereo not drawn) [Compound 399]	0.25 to 1 (≈ 0.507 to 2.03 µM)
O=C(c1ccc(Br)s1)N1CCN2C(=O)c3ccncc3C12c1ccc(Cl)cc1 (stereo not drawn) [Compound 437]	0.25 to 1 (≈ 0.527 to 2.11 µM)
